Measured values reported in US6835867B1, “Allelic series of genomic modifications in cells” (priority 1998, dated 2004).
Where “and” joins values, the source holds several entries; their conditions need not be identical. Identical values can stand only once. Entries after “also recorded” stand apart in the source; their conditions may differ.

Key:
[1] = system: Mouse ES cells (129/Sv+Tyr, +p); assay: Survival of ES cells after 5 hour ENU treatment (colony counting); assay type: cell-based; details: for survival: 5 hours, counted after 3 days of culture
Method: Mouse ES cells (129/Sv+^Tyr, +^p) were used. Cells were grown in culture medium [MEM (Gibco) supplemented with 15% heat-inactivated fetal calf serum, LIF, and 10 μM β-mercaptoethanol. Cells were routinely grown on 100-mm petri dishes and cultivated at 37° C. in a humidified atmosphere of 5% CO2 in air. For subculturing, cells were disassociated with HBSS containing 0.25% trypsin and 0.02% EDTA. After a 3-minute incubation at room temperature, cells were resuspended in culture medium and cell numbers determined using a hemocytometer.
The plating efficiency was determined by plating 2×10^3 cells per 100-mm dish, fixing the cells after 6-days with methanol, staining with 0.01% crystal violet and scoring colonies. Colonies were scored for the calculation of plating efficiency as percent of the inoculated cell number. The plating efficiencies were approximately 20%.
In the first protocol, actively growing ES cells were trypsinized and plated at 5×10^5 cells per T25 flask and after 1 day preincubation treated for 5 hours with 0.3 mg/ml, 0.4 mg/ml or 0.5 mg/ml ENU (dissolved in medium without FCS by vigorous shaking and filter sterilization with 0.2 μm cellulose acetate filters immediately before use). Control cells and cells which had been treated with ENU were washed three times with PBS and the number of surviving cells determined after 3 days of culture in culture medium by plating 2,000 cells from control and from ENU-treated flasks and counting surviving colonies as described above. […] Surviving EA cells which had been treated with 0.3 mg/ml ENU were subcultured at 3:1 onto 60-mm petri dishes in the presence (set 1) and absence (set 2) of primary embryothic fibroblasts (PMEFs). ES cells grown on PMEFs (set 1) were cultured for 3 days, subcultured at 3:1 onto 60-mm petri dishes without PMEFs, trypsinized, plated at 4×10^5 cells per 100-mm plate without PMEFs and grown for 2 days. ES cells grown in the absence of PMEFs (set 2) were trypsinized-after 5 days in culture and plated at 4×10^5 cells per 100-mm plate without PMEFs. Cells (set 1 and set 2) were subsequently grown for 1 day prior to the addition of 10 μM 6-TG to the culture medium and further incubated for an additional 6 days in the presence of 6-TG. The number of 6-TG resistant colonies was calculated, and individual colonies were separately plated in a 96-well microtiter dish.
(§1) In the second protocol, actively growing ES cells were trypsinized and plated at two densities (1×10^5 and 0.5×10^5 cells/well) in 24-well tissue culture plates instead of T25 flasks. After a one-day preincubation period, cells were treated for 5 hours with 0.3 mg/ml or 0.4 mg/ml ENU (as described above) and subsequently treated as described in Table 2.

[2] = system: hypoxanthine guanine phosphoribosyltransferase (Hprt) gene in mouse embryonic stem (ES) cells; assay: ENU-induced Hprt-inactivating mutations, 6-TG selection, Protocol 1; assay type: cell-based; details: 0.3 mg/ml ENU
[3] = system: hypoxanthine guanine phosphoribosyltransferase (Hprt) gene in mouse embryonic stem (ES) cells; assay: ENU-induced Hprt-inactivating mutations, 6-TG selection, Protocol 2 (24-well plates); assay type: cell-based
Method: as §1, with “2. [table]” for “2.”

[4] = literature statement; cited from earlier work

CCN(N=O)C(N)=O [ENU, N-ethyl-N-nitrosurea]
survival ([1]; 0.3 mg/ml ENU): 10% | survival ([1]; 0.4 mg/ml ENU): less than 5% | colonies surviving ([1]; 0.4 mg/ml ENU, Plate 3, 5 days after plating, plate discarded): Discarded, very few | survival ([1]; 0.5 mg/ml ENU): 0% | Total colonies (+PMEF plates) ([2]; 10 μM 6-TG, sum of 6 plates): 21 | Total colonies (−PMEF plates) ([2]; 10 μM 6-TG, sum of 6 plates): 77 | Mutation Frequency Maximum (−PMEF plates) ([2]; Hprt locus): 1/623 | No. Surviving Colonies (−PMEF plates), 6-TG selection (Hprt deficient), per plate ([2]; set 2 grown without PMEFs, 10 μM 6-TG, plates 1-6): 14 and 15 and 12 and 9 | Total colonies ([3]; 0.3 mg/ml ENU, Plate 1): Total: 23 colonies | No. colonies/plate ([3]; 0.3 mg/ml ENU, Plate 1, day 16, individual 60-mm dishes): Plate 2: 3 colonies; also recorded: Plate 3: 5 colonies; also recorded: Plate 5: 1 colony colonies; also recorded: Plate 6: 1 colony colonies; also recorded: Plate 7: 2 colonies; also recorded: Plate 8: 2 colonies; also recorded: Plate 9: 4 colonies | plates that yielded colonies after 6-thioguanine ([3]; 0.3 mg/ml ENU, Plate 1, day 16, of 24 dishes): 9 plates yielded colonies, | Total colonies ([3]; 0.3 mg/ml ENU, Plate 2): Total: 12 colonies | No. colonies/plate ([3]; 0.3 mg/ml ENU, Plate 2, day 16, individual 60-mm dishes): Plate 2: 1 colony colonies; also recorded: Plate 3: 2 colonies; also recorded: Plate 4: 1 colony colonies; also recorded: Plate 5: 4 colonies; also recorded: Plate 6: 2 colonies | plates that yielded colonies after 6-thioguanine ([3]; 0.3 mg/ml ENU, Plate 2, day 16, of 24 dishes): 6 plates yielded colonies, | Mutation frequency maximum ([3]; 0.4 mg/ml ENU, Plate 4): 1/800 | Total colonies ([3]; 0.4 mg/ml ENU, Plate 4): Total: 22 colonies | No. colonies/plate ([3]; 0.4 mg/ml ENU, Plate 4, day 17, individual 60-mm dishes): Plate 1: 14 colonies; also recorded: Plate 2: 18 colonies | plates that yielded colonies after 6-thioguanine ([3]; 0.4 mg/ml ENU, Plate 4, day 17, of 24 dishes): 2 plates yielded colonies, 22 | efficiency in generating mutations relative to other agents [4]: at least 10 fold
